Active and inactive are the calls of the source.
Legend:
[1] = molecular target: T1, Polyadenylate-binding protein 1 (Homo sapiens, UniProt P11940); experiment: PABP1 MLLE–PAM2 binding inhibitor potency, dose response, biochemical, fluorescence polarization, FITC-PAM2 peptide (AID 602259); assay type: functional; conditions: read-out: IC50_Mean
[2] = molecular target: T1, Polyadenylate-binding protein 1; experiment: PABP1 MLLE–PAM2 interaction inhibitors, dose response, miRNA deadenylation inhibitor project, biochemical, fluorescence polarization, Cy5-PAM2 peptide, secondary (AID 602260); assay type: functional; conditions: read-out: IC50_Mean
[3] = Luminescence Cell-Based Dose Confirmation HTS to Identify Activators of 5'UTR Stem-Loop Driven Alpha-Synuclein mRNA Translation in H4 Neuroglioblastoma Cells. [Related pubchem assays: 1829 (Project Summary), 1814 (Primary HTS)]; assay type: functional
[4] = system: H4; experiment: Luminescence Cell-Based Dose Response HTS to Identify Activators of 5'UTR Stem-Loop Driven Prion Protein mRNA Translation in H4 Neuroglioblastoma Cells. [Related pubchem assays: 1829 (Project Summary), 1814 (Primary HTS)]; assay type: functional; conditions: Homo sapiens
[5] = Luminescence Cell-Based Dose Response HTS to Identify Activators of Luciferase Translation or Activity in H4 […] Cells. [Related pubchem assays: 1829 (Project Summary), 1814 (Primary HTS)]; assay type: functional
[6] = Luminescence Cell-Based Dose Confirmation HTS to Identify Inhibitors of Platelet Dense Granule Release. [Related pubchem assays: 1663 (Primary HTS), 1678 (Summary of Project)]; assay type: functional
[7] = molecular target: Luciferin 4-monooxygenase (Photinus pyralis, UniProt P08659); experiment: firefly luciferase enzyme inhibitors, dose response, biochemical, luminescence (AID 1891)
[8] = molecular target: T2, Corticotropin-releasing factor receptor 2/Corticotropin-releasing factor-binding protein (Homo sapiens, UniProt P24387+Q13324); experiment: activators of CRF receptor 2 with binding protein – uHTS hits, confirmation (AID 602473); assay type: functional; conditions: read-out: EC50_Mean
T2 sequence (Q13324 whole entry): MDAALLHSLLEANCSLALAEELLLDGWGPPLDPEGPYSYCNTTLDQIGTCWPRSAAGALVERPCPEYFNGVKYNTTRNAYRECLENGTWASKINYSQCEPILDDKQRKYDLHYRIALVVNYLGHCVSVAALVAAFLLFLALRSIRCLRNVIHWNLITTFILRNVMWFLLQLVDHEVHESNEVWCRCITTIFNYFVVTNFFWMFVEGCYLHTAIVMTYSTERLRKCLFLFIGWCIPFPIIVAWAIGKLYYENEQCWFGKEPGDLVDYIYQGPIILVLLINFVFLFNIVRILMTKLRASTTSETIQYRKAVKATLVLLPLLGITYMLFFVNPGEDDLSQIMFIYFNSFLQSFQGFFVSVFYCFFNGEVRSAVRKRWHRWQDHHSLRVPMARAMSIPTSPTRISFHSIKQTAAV
T2 sequence (P24387 whole entry): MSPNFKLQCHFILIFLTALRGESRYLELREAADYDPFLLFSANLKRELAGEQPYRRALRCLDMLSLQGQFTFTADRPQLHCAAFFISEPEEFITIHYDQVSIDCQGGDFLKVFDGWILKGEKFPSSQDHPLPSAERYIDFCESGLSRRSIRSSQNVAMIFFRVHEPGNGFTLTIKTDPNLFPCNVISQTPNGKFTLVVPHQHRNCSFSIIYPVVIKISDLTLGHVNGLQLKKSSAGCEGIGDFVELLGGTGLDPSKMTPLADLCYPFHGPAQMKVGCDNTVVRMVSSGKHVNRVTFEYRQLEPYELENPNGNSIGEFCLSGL

[9] = molecular target: T2, Corticotropin-releasing factor receptor 2/Corticotropin-releasing factor-binding protein; experiment: Dose Response confirmation of uHTS hits for small molecule antagonists of the CRF-binding protein and CRF-R2 receptor complex.; assay type: functional; conditions: read-out: IC50_Mean
[10] = system: INS1; experiment: beta cell apoptosis inhibitors, cytokine rescue, dose response, luminescence, retest (AID 449756); assay type: functional, cell-based; conditions: Rattus norvegicus;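 further: cell death triggered by IL-1 beta plus TNF-alpha plus IFN-gamma mixture; protective hits raise ATP signal compared with cytokine alone wells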
[11] = HepG2 cell cytotoxicity, dose response, cytotoxicity control for Shn3 inhibitor project, CellTiter-Glo, cherry-picked (AID 624134); assay type: functional, cell-based
[12] = molecular target: T3, Protein skinhead-1 (Caenorhabditis elegans, UniProt P34707); assay type: functional
T3 sequence (P34707 whole entry): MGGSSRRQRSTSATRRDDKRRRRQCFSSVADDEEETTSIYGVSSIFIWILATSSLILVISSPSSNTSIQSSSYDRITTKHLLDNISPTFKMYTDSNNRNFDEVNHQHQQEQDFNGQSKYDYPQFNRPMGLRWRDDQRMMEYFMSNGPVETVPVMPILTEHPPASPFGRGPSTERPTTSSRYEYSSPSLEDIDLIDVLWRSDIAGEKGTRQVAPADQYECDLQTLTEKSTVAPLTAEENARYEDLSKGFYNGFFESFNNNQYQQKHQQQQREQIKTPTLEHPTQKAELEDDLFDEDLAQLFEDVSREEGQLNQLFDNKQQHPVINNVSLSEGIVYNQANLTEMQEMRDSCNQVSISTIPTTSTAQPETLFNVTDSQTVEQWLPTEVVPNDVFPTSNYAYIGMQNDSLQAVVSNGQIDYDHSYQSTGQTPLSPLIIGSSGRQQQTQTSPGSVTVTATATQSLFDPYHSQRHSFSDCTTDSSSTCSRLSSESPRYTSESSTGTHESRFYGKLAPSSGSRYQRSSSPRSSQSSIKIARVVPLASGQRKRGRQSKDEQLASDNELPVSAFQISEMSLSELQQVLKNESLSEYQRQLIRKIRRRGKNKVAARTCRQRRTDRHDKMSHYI

[13] = Shn3 3'UTR reporter inhibitors, dose response, cell-based, Clone20 osteoblasts, firefly luciferase, cherry-picked (AID 624132); assay type: functional;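 further: firefly luciferase luminescence from reporter carrying the Shn3 3'UTR in osteoblasts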
[14] = molecular target: Cytochrome P450 2C9 (Homo sapiens, UniProt P11712)
[15] = molecular target: Cytochrome P450 2C19 (Homo sapiens, UniProt P33261); experiment: Cytochrome panel assay with activity outcomes. Panel member name: p450-cyp2c19 Compounds with AC50 equal or less than 10 uM are considered active; assay type: functional; conditions: read-out: AC50
[16] = control 3'UTR Renilla luciferase suppression, dose response, counter-screen for Shn3 inhibitor project, cell-based, Clone20-Shn3RL, cherry-picked (AID 624133); assay type: functional

Chain of Luciferin 4-monooxygenase (P08659 whole entry): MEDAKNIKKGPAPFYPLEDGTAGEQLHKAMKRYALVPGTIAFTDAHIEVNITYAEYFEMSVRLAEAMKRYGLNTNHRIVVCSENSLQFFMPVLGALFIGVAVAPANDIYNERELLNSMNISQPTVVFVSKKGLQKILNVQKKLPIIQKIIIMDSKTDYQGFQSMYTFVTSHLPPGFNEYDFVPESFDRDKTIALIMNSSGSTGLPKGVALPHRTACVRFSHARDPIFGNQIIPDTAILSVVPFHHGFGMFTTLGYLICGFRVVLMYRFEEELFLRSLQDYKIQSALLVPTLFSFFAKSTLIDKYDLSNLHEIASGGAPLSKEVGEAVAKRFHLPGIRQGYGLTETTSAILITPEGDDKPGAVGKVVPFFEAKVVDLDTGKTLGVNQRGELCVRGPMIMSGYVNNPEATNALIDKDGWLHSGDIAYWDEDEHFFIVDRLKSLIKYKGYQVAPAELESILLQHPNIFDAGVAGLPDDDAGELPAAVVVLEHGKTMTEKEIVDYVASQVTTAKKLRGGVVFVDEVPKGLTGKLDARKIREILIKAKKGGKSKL
T1 sequence (P11940 whole entry): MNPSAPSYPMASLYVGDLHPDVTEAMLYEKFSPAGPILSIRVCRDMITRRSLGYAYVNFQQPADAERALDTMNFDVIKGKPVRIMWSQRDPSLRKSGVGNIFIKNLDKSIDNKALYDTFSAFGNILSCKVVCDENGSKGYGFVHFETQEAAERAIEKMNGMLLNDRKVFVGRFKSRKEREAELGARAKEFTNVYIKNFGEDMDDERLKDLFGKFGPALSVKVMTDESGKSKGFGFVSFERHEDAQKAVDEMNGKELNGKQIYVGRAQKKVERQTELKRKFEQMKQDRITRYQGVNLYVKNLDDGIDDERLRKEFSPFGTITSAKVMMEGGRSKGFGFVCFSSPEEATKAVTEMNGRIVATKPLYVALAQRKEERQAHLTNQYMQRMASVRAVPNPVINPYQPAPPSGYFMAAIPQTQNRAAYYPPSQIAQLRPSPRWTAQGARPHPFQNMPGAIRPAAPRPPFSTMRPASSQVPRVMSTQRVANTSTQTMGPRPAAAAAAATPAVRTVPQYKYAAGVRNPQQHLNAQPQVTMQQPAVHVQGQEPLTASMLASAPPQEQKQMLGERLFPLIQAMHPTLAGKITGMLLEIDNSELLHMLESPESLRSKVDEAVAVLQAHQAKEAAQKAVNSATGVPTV
Chain of Cytochrome P450 2C9 (P11712 whole entry): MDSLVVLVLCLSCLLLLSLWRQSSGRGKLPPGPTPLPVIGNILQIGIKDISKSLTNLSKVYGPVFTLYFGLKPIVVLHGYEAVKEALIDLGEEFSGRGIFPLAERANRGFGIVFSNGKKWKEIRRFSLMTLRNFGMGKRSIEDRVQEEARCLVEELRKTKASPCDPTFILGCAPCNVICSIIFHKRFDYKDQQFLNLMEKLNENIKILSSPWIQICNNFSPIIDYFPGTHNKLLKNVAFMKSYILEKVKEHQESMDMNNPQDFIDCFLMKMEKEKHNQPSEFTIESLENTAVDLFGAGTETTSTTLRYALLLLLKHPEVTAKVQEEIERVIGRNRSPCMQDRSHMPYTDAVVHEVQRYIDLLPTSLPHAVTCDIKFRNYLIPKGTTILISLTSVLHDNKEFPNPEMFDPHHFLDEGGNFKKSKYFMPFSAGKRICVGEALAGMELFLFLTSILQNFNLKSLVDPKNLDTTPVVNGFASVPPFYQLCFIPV
Chain of Cytochrome P450 2C19 (P33261 whole entry): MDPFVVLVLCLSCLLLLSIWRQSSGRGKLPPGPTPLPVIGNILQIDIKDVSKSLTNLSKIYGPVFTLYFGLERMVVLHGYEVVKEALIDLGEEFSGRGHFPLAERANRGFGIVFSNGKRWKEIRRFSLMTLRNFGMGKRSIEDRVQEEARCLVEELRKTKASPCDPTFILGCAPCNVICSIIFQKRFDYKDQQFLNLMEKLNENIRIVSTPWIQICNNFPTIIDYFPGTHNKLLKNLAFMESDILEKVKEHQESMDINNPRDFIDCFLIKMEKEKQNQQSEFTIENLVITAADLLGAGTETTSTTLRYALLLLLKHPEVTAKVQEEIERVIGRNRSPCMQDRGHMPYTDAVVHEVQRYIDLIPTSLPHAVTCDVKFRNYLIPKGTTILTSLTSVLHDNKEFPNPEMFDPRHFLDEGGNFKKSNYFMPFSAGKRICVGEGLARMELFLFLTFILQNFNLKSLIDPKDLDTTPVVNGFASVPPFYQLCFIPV

COc1ccc2oc(-c3ccncc3)cc(=O)c2c1
IC50 [1]: > 66 µM (inactive) | IC50 [2]: > 66 µM (inactive)

Fc1ccccc1C1CCN(Cc2nc(CC3CC3)no2)C1 (centres undefined)
EC50 [3]: 15 µM (active) | EC50 [4]: 15.4 µM (active) | EC50 [5]: 17.2 µM (active)

O=C(CCCn1cc([N+](=O)[O-])cn1)NC1CCCCCC1
EC50 [6]: > 112 µM (not active) | EC50 [7]: > 112 µM (not active)

NC(=O)c1ccccc1N/C=C/C(=O)c1ccc(Cl)cc1Cl
EC50 [6]: 8.86 µM (active) | EC50 [7]: 1.1 µM (active)

Cc1ccc(S(=O)(=O)c2cc3ccccc3oc2=O)cc1
EC50 [3]: > 120 µM (not active) | EC50 [4]: > 120 µM (not active)

COC(=O)c1cn(C(=O)/C=C/c2ccc(OC)c(OC)c2)c2ccccc12
EC50 [3]: 20.2 µM (active) | EC50 [4]: > 120 µM (not active) | EC50 [5]: 32.1 µM (active)

Cc1ccc(-n2ncc(Cl)c2C(=O)NCc2ccccc2)cc1
EC50 [3]: 3.28 µM (active) | EC50 [4]: 5.76 µM (active) | EC50 [5]: 4.06 µM (active)

O=c1oc(-c2ccc([N+](=O)[O-])cc2)nc2ccc(O)cc12
EC50 [6]: 1.72 µM (active) | EC50 [7]: 0.995 µM (active)

Cc1cc(C)nc(Nc2nc(=O)c3ccccc3s2)n1
IC50 [1]: > 66 µM (inactive) | IC50 [2]: > 66 µM (inactive)

Cc1cccc(NC(=O)c2cc(-c3ccc(C)s3)nc3ccccc23)n1
EC50 [3]: > 120 µM (not active) | EC50 [4]: 9.88 µM (active) | EC50 [5]: > 60 µM (not active)

COC(=O)C1=C(C)N(Cc2ccccc2)C(=O)N[C@H]1CCc1ccccc1
EC50 [8]: > 53 µM (inactive) | IC50 [9]: > 47.1 µM (inactive)

CC(C)C(NS(=O)(=O)c1ccc2c(c1)oc(=O)n2C)C(=O)N1CCN(C2CCCCC2)CC1 (centres undefined)
EC50 [8]: > 53 µM (inactive) | IC50 [9]: > 47.1 µM (inactive)

CCCCOc1ccc(N2C(=O)C(C)CNC2=S)cc1 (centres undefined)
IC50 [1]: 41.1 µM (inactive) | IC50 [2]: > 66 µM (inactive)

Cc1sc(NC(=O)CCCC(=O)O)c(C(N)=O)c1-c1ccccc1
IC50 [1]: > 66 µM (inactive) | IC50 [2]: > 66 µM (inactive)

Cc1oc(/N=C/c2ccc3c(c2)OCO3)c(C#N)c1C
EC50 [3]: > 120 µM (not active) | EC50 [4]: > 120 µM (not active) | EC50 [5]: 38.1 µM (active)

Cc1cc2cc(CNC(=O)c3ccc(S(=O)(=O)N4CCOCC4)cc3)ccc2[nH]1
IC50 [1]: > 66 µM (inactive) | IC50 [2]: > 66 µM (inactive)

COc1ccc(Cc2nnc(NC(=O)C3CCCO3)s2)cc1OC (centres undefined)
IC50 [1]: > 66 µM (inactive) | IC50 [2]: > 66 µM (inactive)

COc1ccc(NC2CC(=O)N(C(C)C)C2=O)cc1 (centres undefined)
EC50 [3]: 5.94 µM (active) | EC50 [4]: > 120 µM (not active) | EC50 [5]: 18.8 µM (active)

Cc1onc(-c2ccccc2Cl)c1C(=O)Nc1ccc(Br)cc1
EC50 [6]: > 112 µM (not active) | EC50 [7]: > 112 µM (not active)

Cc1nc2ccccc2c(=O)n1/N=C/c1cn(-c2ccccc2)nc1-c1cccs1
EC50 [3]: 5.11 µM (active) | EC50 [4]: 6.75 µM (active) | EC50 [5]: 14.8 µM (active)

CN(C)c1ccc(/C=C/c2ccc3ccccc3n2)cc1
AC50 [10]: 3.17 µM (active) | AC50 [11]: 15.9 µM (active) | IC50 [12]: > 100 µM (inactive) | AC50 [13]: 1.33 µM (active)

COC(=O)c1cn(NC(=O)c2ccc(F)cc2)c(=O)c2ccccc12
EC50 [8]: > 53 µM (inactive) | AC50 [14]: 39.8 µM (inconclusive) | AC50 [15]: 17.8 µM (inconclusive) | IC50 [9]: > 47.1 µM (inactive)

O=C(NC(=S)Nc1ccc(Cc2ccncc2)cc1)c1ccccc1Cl
IC50 [1]: > 66 µM (inactive) | IC50 [2]: > 66 µM (inactive)

CC(C)C(NC(=O)c1ccc(Cl)cc1Cl)C(=O)N1CCN(S(=O)(=O)c2ccccc2)CC1 (centres undefined)
AC50 [16]: 21 µM (active) | AC50 [13]: 48.5 µM (active)

COC(=O)c1sc(NC(=O)c2ccc(C)o2)nc1C
EC50 [6]: > 112 µM (not active) | EC50 [7]: 5.6 µM (active)

COc1cccc(C(=O)Nc2nc(O)c3c(n2)CCCC3)c1
EC50 [3]: 14.5 µM (active) | EC50 [4]: > 120 µM (not active) | EC50 [5]: > 120 µM (not active)

CCC1OC(=O)C(C)C(OC2C[C@@](C)(OC)C(O)C(C)O2)C(C)C(O[C@@H]2OC(C)CC(N(C)C)C2O)[C@](C)(O)CC(C)C(=NOCOCCOC)C(C)C(O)[C@]1(C)O (some centres undefined)
EC50 [8]: > 53 µM (inactive) | IC50 [9]: > 47.1 µM (inactive)

O=C(NC(=S)Nc1ccc(S(=O)(=O)N2CCCCC2)cc1)c1cccs1
IC50 [1]: > 66 µM (inactive) | IC50 [2]: > 66 µM (inactive)

COc1ccc(CNC(=O)c2ccc(C(C)C)cc2)cc1
EC50 [3]: 53.5 µM (active) | EC50 [4]: 80.9 µM (active) | EC50 [5]: 0.16 µM (inconclusive)

CCOC(=O)Cc1csc(NC(=S)NC(=O)c2ccccc2Br)n1
IC50 [1]: > 66 µM (inactive) | IC50 [2]: > 66 µM (inactive)

Cc1cccc(NS(=O)(=O)c2cccc(C(=O)N3CCN(c4ccccn4)CC3)c2)c1
EC50 [8]: > 53 µM (inactive) | IC50 [9]: > 47.1 µM (inactive)

Cc1cccc(C)c1OCC(O)Cn1nnc2ccccc21 (centres undefined)
EC50 [8]: > 53 µM (inactive) | IC50 [9]: > 47.1 µM (inactive)

COC(=O)CCCC1=CC2=C(c3ccccc3)C(=O)C(C)(OC(=O)C3CCCC3)C(=O)C2=CN1CCN1CCOCC1 (centres undefined)
IC50 [1]: > 66 µM (inactive) | IC50 [2]: > 66 µM (inactive)

COc1ccc(NC(=O)c2cc3ccccc3o/c2=N\NS(=O)(=O)c2ccc(C)cc2)cc1
EC50 [4]: 0.575 µM (active)

CCN(CC(=O)Nc1sc2c(c1C#N)CCCC2)CC(=O)NC1CCS(=O)(=O)C1 (centres undefined)
EC50 [6]: > 112 µM (not active) | EC50 [7]: > 112 µM (not active)

CCOc1ccc(NC(=O)[C@@H](NC(=O)c2ccccc2)[C@@H](C)CC)cc1
EC50 [8]: > 53 µM (inactive) | IC50 [9]: > 47.1 µM (inactive)

Reference: ChEMBL document CHEMBL1201862, “PubChem BioAssay data set” (2004)
